Experimental data reported in patent US11560391B2, “Sulfonylurea compounds as inhibitors of interleukin-1 activity” (Genentech, Inc., priority 2018, dated 2023).

System: THP-1 ASC-GFP cells
Assay: THP-1 ASC-GFP speck assay (NLRP3 inflammasome activation, nigericin)
Format: cell-based
Conditions: THP1-ASC-GFP; PMA-differentiated, LPS primed, 10 μM nigericin
Protocol: THP-1 ASC-GFP cell line was purchased from Invivogen, San Diego, for infammasome activation assay. THP-1 ASC-GFP cells stably express a 37.6 kDa ASC::GFP fusion protein that enables monitoring of spec formation by microscopy after activation of NLRP3 dependent inflammasome pathway. Cells were maintained at a density of 600,000 cells/mL in growth media consisting of RPMI 1640, 2 mM L-glutamine, 25 mM HEPES and 10% heat inactivated fetal bovine serum at 37° C. and 5% CO2. Cells were passaged every 3-4 days and used for assays for up to 20 passages.
THP-1 ASC-GFP cells were collected by centrifuging cells at 800 RPM for 5 minutes. Cell culture supernatant was removed and cells were re-suspended in fresh media at density of 1×10^6 cells/mL in assay media consisting of RPMI 1640, 2 mM L-glutamine, 25 mM HEPES and 10% heat inactivated fetal bovine serum. Phorbol 12-myristate 13-acetate (PMA) (Invivogen,tlrl-pma) was added to the cell suspension at a final concentration of 500 ng/ml and mixed thoroughly. 40,000 cells were added per well of a 384 well plate and differentiated into macrophages overnight at 37° C. and 5% CO2. Cells were primed with 1 μg/mL of lipopolysaccharide (Invivogen Ultrapure lipopolysaccharide from E. coli, tlrl-3pelps) in assay media for 3 hours at 37° C. and 5% CO2. After priming, media was removed and THP-1 ASC-GFP cells were preincubated with serially diluted test compounds with starting concentration of 40 μM followed by 2-fold dilution for a 20-point curve or vehicle (DMSO) for 30 min in assay media at 37° C. and 5% CO2. Cells were then stimulated with 10 μM nigericin (Invivogen, tlrl-nig-5) for 90 min at 37° C. and 5% CO2 to activate NLRP3 dependent inflammasome pathway and spec formation. After stimulation, cells were fixed with 4.8% paraformaldehyde (Electron Microscopy Sciences #15710-S) and incubated at room temperature for 15 min. Cells were then washed 3-times with 100 μL of phosphate buffered saline and permeabilized in the presence of premeablization/block buffer for 20 min at room temperature. Cells were then washed 3-times with 100 μL phosphate buffered saline and incubated for 1 hr at room temperature in the presence of hoechst. After staining with Hoechst, cells were washed 3-times with 100 μL phosphate buffered saline and imaged for ASC spec formation.
THP-1 ASC-GFP cells were imaged in 488 and Hoechst channels. Hoechst channel was used for cell count and 488 channel was used to identify number of GFP ASC specks in imaged fields. Percentage of cells with a spec was calculated by dividing the number of GFP positive spots by total number of cells.

SMILES | IC50 [nM]
CC(C)c1nn(CC(F)F)c(C(C)C)c1NC(=O)NS(=O)(=O)c1cnn2c1OCC(C)(C)C2 [Example 57, N-((1-(2,2-difluoroethyl)-3,5-diisopropyl-1H-pyrazol-4-yl)carbamoyl)-6,6-dimethyl-6,7-dihydro-5H-pyrazolo[5,1-b][1,3]oxazine-3-sulfonamide, ammonia] | 560
CC(C)c1nn(CC(F)(F)F)c(C(C)C)c1NC(=O)NS(=O)(=O)c1cnn2c1OCCC2 [Example 58, N-((3,5-diisopropyl-1-(2,2,2-trifluoroethyl)-1H-pyrazol-4-yl)carbamoyl)-6,7-dihydro-5H-pyrazolo[5,1-b][1,3]oxazine-3-sulfonamide, ammonia] | 200
CO[C@@H]1COc2c(S(=O)(=O)NC(=O)Nc3c(C(C)C)nn(CC(F)(F)F)c3C(C)C)cnn2C1 [Example 59a, (S)—N-((3,5-diisopropyl-1-(2,2,2-trifluoroethyl)-1H-pyrazol-4-yl)carbamoyl)-6-methoxy-6,7-dihydro-5H-pyrazolo[5,1-b][1,3]oxazine-3-sulfonamide, ammonia] | 170
CO[C@@H]1COc2c(S(=O)(=O)NC(=O)Nc3c4c(nn3C(C)C)CCC4)cnn2C1 [Example 60a, Sodium (S)—N-((2-isopropyl-2,4,5,6-tetrahydrocyclopenta[c]pyrazol-3-yl)carbamoyl)-6-methoxy-6,7-dihydro-5H-pyrazolo[5,1-b][1,3]oxazine-3-sulfonamide] | 570
CC(C)n1nc2c(c1NC(=O)NS(=O)(=O)c1cnn3c1OCC(C)(C)C3)CCC2 [Example 61, N-((2-isopropyl-2,4,5,6-tetrahydrocyclopenta[c]pyrazol-3-yl)carbamoyl)-6,6-dimethyl-6,7-dihydro-5H-pyrazolo[5,1-b][1,3]oxazine-3-sulfonamide] | 900
CO[C@@H]1COc2c(S(=O)(=O)NC(=O)Nc3c(C(C)C)nn(CC(F)F)c3C(C)C)cnn2C1 [Example 62a, (S)—N-((1-(2,2-difluoroethyl)-3,5-diisopropyl-1H-pyrazol-4-yl)carbamoyl)-6-methoxy-6,7-dihydro-5H-pyrazolo[5,1-b][1,3]oxazine-3-sulfonamide, ammonia] | 640
CC(C)c1nn(CC(F)F)c(C(C)C)c1NC(=O)NS(=O)(=O)c1cnn2c1OCCC2 [Example 63, N-((1-(2,2-difluoroethyl)-3,5-diisopropyl-1H-pyrazol-4-yl)carbamoyl)-6,7-dihydro-5H-pyrazolo[5,1-b][1,3]oxazine-3-sulfonamide, ammonia] | 350
CN[C@@H]1COc2c(S(=O)(=O)NC(=O)Nc3c(C(C)C)nn(C(F)(F)F)c3C(C)C)cnn2C1 [Example 64a, (S)—N-((3,5-diisopropyl-1-(trifluoromethyl)-1H-pyrazol-4-yl)carbamoyl)-6-(methylamino)-6,7-dihydro-5H-pyrazolo[5,1-b][1,3]oxazine-3-sulfonamide, ammonia] | 240
CCn1nc(C(C)C)c(NC(=O)NS(=O)(=O)c2cnn3c2OCC(C)(C)C3)c1C(C)C [Example 65, N-((1-ethyl-3,5-diisopropyl-1H-pyrazol-4-yl)carbamoyl)-6,6-dimethyl-6,7-dihydro-5H-pyrazolo[5,1-b][1,3]oxazine-3-sulfonamide, ammonia] | 1400
CCn1nc(C(C)C)c(NC(=O)NS(=O)(=O)c2cnn3c2OC[C@@H](NC)C3)c1C(C)C [Example 66a, (S)—N-((1-ethyl-3,5-diisopropyl-1H-pyrazol-4-yl)carbamoyl)-6-(methylamino)-6,7-dihydro-5H-pyrazolo[5,1-b][1,3]oxazine-3-sulfonamide, ammonia] | 3600
CC(C)c1nn(C(F)(F)F)c(C(C)C)c1NC(=O)NS(=O)(=O)c1cnn2c1OCCC2 [Example 67, N-((3,5-diisopropyl-1-(trifluoromethyl)-1H-pyrazol-4-yl)carbamoyl)-6,7-dihydro-5H-pyrazolo[5,1-b][1,3]oxazine-3-sulfonamide, ammonia] | 170

Other lines, results leading:

IC50 [nM] | SMILES
1500 | CC(C)c1nn(C)c(C(C)C)c1NC(=O)NS(=O)(=O)c1cnn2c1OCC(C)(C)C2 [Example 68, N-((3,5-diisopropyl-1-methyl-1H-pyrazol-4-yl)carbamoyl)-6,6-dimethyl-6,7-dihydro-5H-pyrazolo[5,1-b][1,3]oxazine-3-sulfonamide, ammonia]
520 | COc1cc(-c2cc(C(F)(F)F)nc(C(C)C)c2NC(=O)NS(=O)(=O)c2cnn3c2OCCC3)ccn1 [Example 69, Sodium N-((2-isopropyl-2′-methoxy-6-(trifluoromethyl)-[4,4′-bipyridin]-3-yl)carbamoyl)-6,7-dihydro-5H-pyrazolo[5,1-b][1,3]oxazine-3-sulfonamide]
4100 | CN[C@@H]1COc2c(S(=O)(=O)NC(=O)Nc3c(C(C)C)nn(CC(F)F)c3C(C)C)cnn2C1 [Example 70a, (S)—N-((1-(2,2-difluoroethyl)-3,5-diisopropyl-1H-pyrazol-4-yl)carbamoyl)-6-(methylamino)-6,7-dihydro-5H-pyrazolo[5,1-b][1,3]oxazine-3-sulfonamide, ammonia]
1900 | CC(C)c1cc(OC(F)(F)F)nc(C(C)C)c1NC(=O)NS(=O)(=O)c1cnn2c1OCCC2 [Example 71, Sodium N-((2,4-diisopropyl-6-(trifluoromethoxy)pyridin-3-yl)carbamoyl)-6,7-dihydro-5H-pyrazolo[5,1-b][1,3]oxazine-3-sulfonamide]
2500 | CN[C@@H]1COc2c(S(=O)(=O)NC(=O)Nc3c(C(C)C)nn(CC(F)(F)F)c3C(C)C)cnn2C1 [Example 72a, (S)—N-((3,5-diisopropyl-1-(2,2,2-trifluoroethyl)-1H-pyrazol-4-yl)carbamoyl)-6-(methylamino)-6,7-dihydro-5H-pyrazolo[5,1-b][1,3]oxazine-3-sulfonamide, ammonia]
8700 | CN[C@@H]1COc2c(S(=O)(=O)NC(=O)Nc3c(C(C)C)nn(C)c3C(C)C)cnn2C1 [Example 73a, (S)—N-((3,5-diisopropyl-1-methyl-1H-pyrazol-4-yl)carbamoyl)-6-(methylamino)-6,7-dihydro-5H-pyrazolo[5,1-b][1,3]oxazine-3-sulfonamide, ammonia]
340 | COc1cc(-c2nc(C(F)(F)F)cc(C(C)C)c2NC(=O)NS(=O)(=O)c2cnn3c2OCCC3)ccn1 [Example 74, Sodium N-((4-isopropyl-2′-methoxy-6-(trifluoromethyl)-[2,4′-bipyridin]-3-yl)carbamoyl)-6,7-dihydro-5H-pyrazolo[5,1-b][1,3]oxazine-3-sulfonamide]
420 | CC(C)c1nn(CC(F)(F)F)c(C(C)C)c1NC(=O)NS(=O)(=O)c1cnn2c1OCC(C)(C)C2 [Example 75, N-((3,5-diisopropyl-1-(2,2,2-trifluoroethyl)-1H-pyrazol-4-yl)carbamoyl)-6,6-dimethyl-6,7-dihydro-5H-pyrazolo[5,1-b][1,3]oxazine-3-sulfonamide, ammonia]
560 | CC(C)c1cc(C(F)(F)F)nc(C(C)C)c1NC(=O)NS(=O)(=O)c1cnn2c1OC[C@@H](N(C)C)C2 [Example 76a, (S)—N-((2,4-diisopropyl-6-(trifluoromethyl)pyridin-3-yl)carbamoyl)-6-(dimethylamino)-6,7-dihydro-5H-pyrazolo[5,1-b][1,3]oxazine-3-sulfonamide]
1900 | CC(C)n1nc2c(c1NC(=O)NS(=O)(=O)c1cnn3c1OC[C@@H](N(C)C)C3)CCC2 [Example 77a, (S)-6-(dimethylamino)-N-((2-isopropyl-2,4,5,6-tetrahydrocyclopenta[c]pyrazol-3-yl)carbamoyl)-6,7-dihydro-5H-pyrazolo[5,1-b][1,3]oxazine-3-sulfonamide]
71 | CO[C@@H]1COc2c(S(=O)(=O)NC(=O)Nc3c(C(C)C)nn(C(F)(F)F)c3C(C)C)cnn2C1 [Example 78a, (S)—N-((3,5-diisopropyl-1-(trifluoromethyl)-1H-pyrazol-4-yl)carbamoyl)-6-methoxy-6,7-dihydro-5H-pyrazolo[5,1-b][1,3]oxazine-3-sulfonamide]
740 | CC(C)c1nn(C(F)(F)F)c(C(C)C)c1NC(=O)NS(=O)(=O)c1cnn2c1OCC(C)(C)C2 [Example 79, N-((3,5-diisopropyl-1-(trifluoromethyl)-1H-pyrazol-4-yl)carbamoyl)-6,6-dimethyl-6,7-dihydro-5H-pyrazolo[5,1-b][1,3]oxazine-3-sulfonamide]
150 | CO[C@@H]1COc2c(S(=O)(=O)NC(=O)Nc3c(C(C)C)cc(C(F)(F)F)nc3C(C)C)cnn2C1 [Example 80a, (S)—N-((2,4-diisopropyl-6-(trifluoromethyl)pyridin-3-yl)carbamoyl)-6-methoxy-6,7-dihydro-5H-pyrazolo[5,1-b][1,3]oxazine-3-sulfonamide, ammonia]
